This note sets out measurements from paper PMC4246094, “Exchange Factor EFA6R Requires C-terminal Targeting to the Plasma Membrane to Promote Cytoskeletal Rearrangement through the Activation of ADP-ribosylation Factor 6 (ARF6)” (The Journal of Biological Chemistry, 2014).

Each structure is given as a SMILES string.

The experiment deals with T1, EFA6R (GFP-EFA6R), isoform B (Homo sapiens, UniProt Q9NYI0).
T1 construct: gene PSD3; full-length isoform B, N-terminal GFP tag (pEGFPC2), transiently expressed in COS7 cells, lysate used; endogenous protein runs at 56 kDa
T1 sequence (Q9NYI0 1-513 isoform Q9NYI0-3 limits assumed): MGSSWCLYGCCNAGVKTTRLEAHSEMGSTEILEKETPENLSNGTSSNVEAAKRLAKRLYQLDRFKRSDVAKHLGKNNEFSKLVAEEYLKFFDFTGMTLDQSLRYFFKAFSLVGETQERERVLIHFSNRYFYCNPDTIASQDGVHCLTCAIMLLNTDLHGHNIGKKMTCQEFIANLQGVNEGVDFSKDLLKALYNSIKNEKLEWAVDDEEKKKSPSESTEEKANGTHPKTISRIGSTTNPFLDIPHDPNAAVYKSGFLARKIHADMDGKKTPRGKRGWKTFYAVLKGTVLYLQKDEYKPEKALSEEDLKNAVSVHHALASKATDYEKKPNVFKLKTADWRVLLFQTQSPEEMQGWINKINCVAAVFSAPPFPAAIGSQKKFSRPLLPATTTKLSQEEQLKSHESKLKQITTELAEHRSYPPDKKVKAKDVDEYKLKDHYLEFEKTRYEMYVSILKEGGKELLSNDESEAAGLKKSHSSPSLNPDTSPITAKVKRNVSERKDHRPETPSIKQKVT
The experiment can be described thus: competition pulldown: displacement from biotinylated PI-avidin beads by soluble diC8 lipid, immunoblot densitometry. Particulars: concentration blocking 50% of binding to PI 4,5-P2 beads (in the methods PI 3,4-P2 beads); cell lysate, pH 7.4, 150 mM NaCl, 0.5% Nonidet P-40, 4 °C; PH domain; read-out: EC50 (the source's name).
As to `CCCCCCCC(=O)OC[C@H](COP(=O)(O)O[C@H]1[C@H](O)[C@@H](OP(=O)(O)O)[C@H](OP(=O)(O)O)[C@@H](OP(=O)(O)O)[C@H]1O)OC(=O)CCCCCCC` [PI 3,4,5-trisphosphate], the IC50 was above 10 µM.

Take `CCCCCCCC(=O)OC[C@H](COP(=O)(O)O[C@H]1[C@H](O)[C@@H](O)[C@H](OP(=O)(O)O)[C@@H](OP(=O)(O)O)[C@H]1O)OC(=O)CCCCCCC` [PI 3,4-P2]: the IC50 was above 10 µM.

Take `CCCCCCCC(=O)OC[C@H](COP(=O)(O)O[C@@H]1[C@H](O)[C@H](O)[C@@H](OP(=O)(O)O)[C@H](OP(=O)(O)O)[C@H]1O)OC(=O)CCCCCCC` [PI 4,5-P2]: the IC50 was found to be 1.1 µM.

`CCCCCCCC(=O)OC[C@H](COP(=O)(O)O[C@@H]1[C@H](O)[C@H](OP(=O)(O)O)[C@@H](O)[C@H](O)[C@H]1O)OC(=O)CCCCCCC` [PI 3-phosphate]: the IC50 was above 10 µM.
